Experimental data from PubChem BioAssay AID256 (DTP/NCI, 2004).
Several values for one entry are separate records, joined by “and”; a condition that tells them apart may be missing. Identical values can stand only once. Toxic doses and inconclusive results are not listed. How the source made its calls: active means survival T/C of 150% or more; inactive means T/C below 125% in these data.

System: CD2F1 mice, L1210 leukemia ip, survival T/C
Assay: NCI In Vivo Anticancer Drug Screen. Data for tumor model L1210 Leukemia (intraperitoneal) in CD2F1 (CDF1) mice
Conditions: higher = longer survival
Method in brief: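 Mice carrying a transplanted tumor received test compound or vehicle alone. The value is the measurement in the treated group divided by that in the vehicle-treated control group.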

[1] = endpoint: mean survival time, dose: 100.0 mg/kg/injection, schedule: Q01DX001 (ip), vehicle: saline with Tween-80
[2] = endpoint: mean survival time, dose: 200.0 mg/kg/injection, schedule: Q01DX001 (ip), vehicle: saline with Tween-80
[3] = endpoint: mean survival time, dose: 400.0 mg/kg/injection, schedule: Q01DX001 (ip), vehicle: saline with Tween-80
[4] = endpoint: mean survival time, dose: 100.0 mg/kg/injection, schedule: Q04DX003 (ip), vehicle: saline
[5] = endpoint: mean survival time, dose: 200.0 mg/kg/injection, schedule: Q04DX003 (ip), vehicle: saline
[6] = endpoint: mean survival time, dose: 400.0 mg/kg/injection, schedule: Q04DX003 (ip), vehicle: saline
[7] = endpoint: mean survival time, dose: 50.0 mg/kg/injection, schedule: Q04DX002 (ip), vehicle: saline with Tween-80
[8] = endpoint: mean survival time, dose: 100.0 mg/kg/injection, schedule: Q01DX009 (ip), vehicle: saline
[9] = endpoint: mean survival time, dose: 100.0 mg/kg/injection, schedule: Q04DX002 (ip), vehicle: saline with Tween-80
[10] = endpoint: mean survival time, dose: 200.0 mg/kg/injection, schedule: Q04DX002 (ip), vehicle: saline with Tween-80
[11] = endpoint: mean survival time, dose: 100.0 mg/kg/injection, schedule: Q04DX003 (ip), vehicle: saline with Tween-80
[12] = endpoint: mean survival time, dose: 200.0 mg/kg/injection, schedule: Q04DX003 (ip), vehicle: saline with Tween-80
[13] = endpoint: mean survival time, dose: 400.0 mg/kg/injection, schedule: Q04DX002 (ip), vehicle: saline with Tween-80
[14] = endpoint: mean survival time, dose: 400.0 mg/kg/injection, schedule: Q04DX003 (ip), vehicle: saline with Tween-80
[15] = endpoint: mean survival time, dose: 100.0 mg/kg/injection, schedule: Q01DX001 (ip), vehicle: saline
[16] = endpoint: mean survival time, dose: 200.0 mg/kg/injection, schedule: Q01DX001 (ip), vehicle: saline
[17] = endpoint: mean survival time, dose: 400.0 mg/kg/injection, schedule: Q01DX001 (ip), vehicle: saline
[18] = endpoint: mean survival time, dose: 100.0 mg/kg/injection, schedule: Q01DX009 (ip), vehicle: saline with Tween-80
[19] = endpoint: mean survival time, dose: 200.0 mg/kg/injection, schedule: Q01DX009 (ip), vehicle: saline with Tween-80
[20] = endpoint: mean survival time, dose: 400.0 mg/kg/injection, schedule: Q01DX009 (ip), vehicle: saline with Tween-80

Measured: T/C

COC1=C(C)C(=O)c2c(c(COC(N)=O)c3n2CC2C3N2C)C1=O (configuration not stated)
inactive: endpoint: mean survival time, dose: 2.25 mg/kg/injection, schedule: Q01DX001 (ip), vehicle: acetone 103 % of control | endpoint: mean survival time, dose: 2.9 mg/kg/injection, schedule: Q01DX001 (ip), vehicle: acetone 102 % of control | endpoint: mean survival time, dose: 4.5 mg/kg/injection, schedule: Q01DX001 (ip), vehicle: acetone 110 % of control | endpoint: mean survival time, dose: 6.75 mg/kg/injection, schedule: Q01DX001 (ip), vehicle: acetone 118 % of control | endpoint: mean survival time, dose: 6.75 mg/kg/injection, schedule: Q01DX001 (ip), vehicle: saline 112 % of control

CCOc1ccc(/C=N/NC(=O)c2ccccc2NC(=O)C2CC2)cc1OC
inactive: [1] 98 % of control | [2] 94 % of control | [3] 94 % of control

O=Cc1ccc2ccccc2[n+]1[O-]
inactive: [4] 101 % of control | [5] 100 % of control | [6] 101 % of control

O=C1NC(=O)C2C3CCC(O3)C12 (configuration not stated)
inactive: endpoint: mean survival time, dose: 25.0 mg/kg/injection, schedule: Q01DX009 (ip), vehicle: saline 102 % of control | endpoint: mean survival time, dose: 25.0 mg/kg/injection, schedule: Q04DX002 (ip), vehicle: saline with Tween-80 103 % of control and 97 % of control | endpoint: mean survival time, dose: 50.0 mg/kg/injection, schedule: Q01DX009 (ip), vehicle: saline 105 % of control | [7] 98 % of control and 106 % of control | [8] 102 % of control | [9] 103 % of control and 101 % of control | [10] 87 % of control

S=C(Nc1ccccn1)c1ccccn1
inactive: [9] 111 % of control | [11] 100 % of control | [10] 95 % of control | [12] 94 % of control | [13] 103 % of control | [14] 103 % of control

NC1C(O)C(O)C(O)C(O)C1O (configuration not stated)
inactive: [15] 98 % of control | [16] 98 % of control | [17] 98 % of control

COc1ccc(CN(C)CCO)cc1OC
inactive: endpoint: median survival time, dose: 25.0 mg/kg/injection, schedule: Q04DX003 (ip), vehicle: saline 100 % of control | endpoint: median survival time, dose: 50.0 mg/kg/injection, schedule: Q04DX003 (ip), vehicle: saline 100 % of control | endpoint: median survival time, dose: 100.0 mg/kg/injection, schedule: Q04DX003 (ip), vehicle: saline 90 % of control | endpoint: median survival time, dose: 200.0 mg/kg/injection, schedule: Q04DX003 (ip), vehicle: saline 100 % of control

COc1ccc(-n2c(=S)[nH]c3ccc(C)cc3c2=O)cc1
inactive: [18] 97 % of control | [19] 100 % of control | [20] 91 % of control

COc1ccc(C(=O)c2cccc3c2-c2ccccc2C3(c2ccc(OC)c(C)c2)c2ccc(OC)c(C)c2)cc1C
inactive: endpoint: mean survival time, dose: 5.0 mg/kg/injection, schedule: Q01DX001 (ip), vehicle: other 96 % of control | endpoint: mean survival time, dose: 10.0 mg/kg/injection, schedule: Q01DX001 (ip), vehicle: other 88 % of control | endpoint: mean survival time, dose: 40.0 mg/kg/injection, schedule: Q01DX001 (ip), vehicle: other 86 % of control | endpoint: mean survival time, dose: 80.0 mg/kg/injection, schedule: Q01DX001 (ip), vehicle: other 91 % of control

Oc1ccccc1C=NCc1ccccc1.Oc1ccccc1C=NCc1ccccc1.[Cu]
inactive: [9] 100 % of control | [10] 96 % of control | [13] 100 % of control

CN(C)C(CCN1CCCCC1)CN1CCCCC1 (configuration not stated)
inactive: [8] 101 % of control | [4] 101 % of control | endpoint: mean survival time, dose: 200.0 mg/kg/injection, schedule: Q01DX009 (ip), vehicle: saline 98 % of control | [5] 101 % of control | endpoint: mean survival time, dose: 400.0 mg/kg/injection, schedule: Q01DX009 (ip), vehicle: saline 102 % of control | [6] 98 % of control

COC(=O)C(=O)Cc1cc(OC)cc(=O)o1
inactive: [11] 100 % of control | [12] 101 % of control | [14] 95 % of control

CCOC(=O)C(Cc1c[nH]c2ccccc12)(NC(C)=O)C(=O)OCC
inactive: [11] 98 % of control | [12] 96 % of control | [14] 104 % of control

O=C1C=CC(=O)N1c1ccc(Cl)cc1
inactive: endpoint: mean survival time, dose: 6.25 mg/kg/injection, schedule: Q01DX001 (ip), vehicle: Klucel (hydroxypropylcellulose) (HPC) 100 % of control | endpoint: mean survival time, dose: 6.25 mg/kg/injection, schedule: Q01DX009 (ip), vehicle: Klucel (hydroxypropylcellulose) (HPC) 110 % of control | endpoint: mean survival time, dose: 6.25 mg/kg/injection, schedule: Q04DX003 (ip), vehicle: Klucel (hydroxypropylcellulose) (HPC) 107 % of control | endpoint: mean survival time, dose: 12.5 mg/kg/injection, schedule: Q01DX001 (ip), vehicle: Klucel (hydroxypropylcellulose) (HPC) 103 % of control | endpoint: mean survival time, dose: 12.5 mg/kg/injection, schedule: Q01DX009 (ip), vehicle: Klucel (hydroxypropylcellulose) (HPC) 101 % of control | endpoint: mean survival time, dose: 12.5 mg/kg/injection, schedule: Q04DX003 (ip), vehicle: Klucel (hydroxypropylcellulose) (HPC) 104 % of control | endpoint: mean survival time, dose: 25.0 mg/kg/injection, schedule: Q01DX009 (ip), vehicle: Klucel (hydroxypropylcellulose) (HPC) 96 % of control

CC(=O)C[n+]1ccc(C)cc1Sc1ccccc1C
inactive: endpoint: median survival time, dose: 25.0 mg/kg/injection, schedule: Q01DX009 (ip), vehicle: saline with Tween-80 98 % of control | endpoint: median survival time, dose: 50.0 mg/kg/injection, schedule: Q01DX009 (ip), vehicle: saline with Tween-80 96 % of control | endpoint: median survival time, dose: 100.0 mg/kg/injection, schedule: Q01DX009 (ip), vehicle: saline with Tween-80 98 % of control

COC(=O)NC1=C(N2CC2)C(=O)C(NC(=O)OC)=C(N2CC2)C1=O
active: endpoint: mean survival time, dose: 0.75 mg/kg/injection, schedule: Q01DX009 (ip), vehicle: saline 154 % of control | endpoint: mean survival time, dose: 1.5 mg/kg/injection, schedule: Q01DX009 (ip), vehicle: saline 175 % of control

COc1ccc2cc1Oc1ccc(cc1)C[C@@H]1c3cc(c(OC)cc3CCN1C)Oc1c(OC)c(OC)cc3c1[C@H](C2)N(C)CC3
inactive: [7] 94 % of control | [9] 94 % of control | [10] 94 % of control | [13] 90 % of control

COc1ccc2nc3c(Cl)cccc3c(Cl)c2c1
inactive: endpoint: mean survival time, dose: 50.0 mg/kg/injection, schedule: Q04DX003 (ip), vehicle: saline with Tween-80 98 % of control | [11] 97 % of control | [2] 87 % of control | [12] 101 % of control

CC(=O)OC(CNCC(=O)O)C(Cl)(Cl)Cl (configuration not stated)
inactive: [11] 102 % of control | [12] 98 % of control | [14] 98 % of control

CC1(C)CCCC2(C)C1C(=O)C=CC2(O)CCc1ccoc1.CC12CCc3ccoc3C1CCC1(C(=O)O)C(CO)=CCCC12.[Ag] (configuration not stated)
inactive: endpoint: mean survival time, dose: 75.0 mg/kg/injection, schedule: Q04DX002 (ip), vehicle: other 103 % of control | endpoint: mean survival time, dose: 150.0 mg/kg/injection, schedule: Q04DX002 (ip), vehicle: other 115 % of control | endpoint: mean survival time, dose: 300.0 mg/kg/injection, schedule: Q04DX002 (ip), vehicle: other 107 % of control

CCCCCCC/C=N/NC(=O)c1ccc[n+](C)c1
inactive: [1] 97 % of control | [2] 97 % of control

CCOC(=O)/C(Br)=C/SCCN
inactive: [15] 111 % of control | [16] 105 % of control | [17] 100 % of control

CC1(O)CC2CCCC1C2 (configuration not stated)
inactive: [11] 93 % of control | [12] 90 % of control | [14] 93 % of control

Cc1cccnc1F
inactive: endpoint: mean survival time, dose: 12.5 mg/kg/injection, schedule: Q01DX009 (ip), vehicle: saline with Tween-80 95 % of control | endpoint: mean survival time, dose: 25.0 mg/kg/injection, schedule: Q01DX009 (ip), vehicle: saline with Tween-80 97 % of control | endpoint: mean survival time, dose: 50.0 mg/kg/injection, schedule: Q01DX009 (ip), vehicle: saline with Tween-80 100 % of control | [11] 93 % of control | [12] 96 % of control | [14] 96 % of control

Cn1c(=O)[nH]c2c(c1=O)CCO2
inactive: [15] 103 % of control | [16] 97 % of control | [17] 100 % of control

CC(C)(SSC(C)(C)C(N)C(=O)O)C(N)C(=O)O (configuration not stated)
inactive: [1] 108 % of control | [18] 94 % of control | [2] 101 % of control | [19] 93 % of control | [3] 109 % of control | [20] 90 % of control

O=C(Cl)CCc1cc(Cl)no1
inactive: endpoint: mean survival time, dose: 25.0 mg/kg/injection, schedule: Q04DX003 (ip), vehicle: olive oil, sesame oil, peanut oil 96 % of control | endpoint: mean survival time, dose: 50.0 mg/kg/injection, schedule: Q04DX003 (ip), vehicle: olive oil, sesame oil, peanut oil 96 % of control | endpoint: mean survival time, dose: 100.0 mg/kg/injection, schedule: Q04DX003 (ip), vehicle: olive oil, sesame oil, peanut oil 103 % of control | endpoint: mean survival time, dose: 200.0 mg/kg/injection, schedule: Q04DX003 (ip), vehicle: olive oil, sesame oil, peanut oil 94 % of control | endpoint: mean survival time, dose: 400.0 mg/kg/injection, schedule: Q04DX003 (ip), vehicle: olive oil, sesame oil, peanut oil 103 % of control
